{
  "source": "patent US20020137929A1",
  "about": "“1 - (3-heterocyclylphenyl) isothiourea, -isourea, -guanidine and -amidine herbicidal agents” (Intellectual Property Department, BASF Aktiengesellschaft, priority 1998, published 2002)",
  "key": {"[1]": {"test_system": "GALAP (Galium)", "test": "Postemergence herbicidal evaluation", "format": "in vivo, Galium aparine", "conditions": "postemergence", "procedure,_shortened": "(§1)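 Seedlings grown about two weeks were sprayed at 40 psi with compound dispersed in 50/50 acetone/water plus 0.5% TWEEN 20, at about 0.0156 to 0.500 kg/ha. Plants were kept in the greenhouse and scored 4–5 weeks later on a 0–9 visual scale against untreated controls.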"}, "[2]": {"test_system": "SAGPY (Arrowhead (Pygmaea))", "test": "Preemergence weed control under flooded paddy conditions", "format": "in vivo, Sagittaria pygmaea", "conditions": "rated 3-4 weeks after treatment", "procedure,_shortened": "(§2)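 Flooded-pot preemergence screen with silt loam and seeds in the upper 0.5 cm. Dose about 0.0313 to 0.500 kg/ha, delivered into flood water; visual 0-9 score after 3 to 4 weeks.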"}, "[3]": {"test_system": "IPOHE (Morningglory, Ivyleaf)", "test": "Preemergence herbicidal evaluation", "format": "in vivo, Ipomoea hederacea", "conditions": "rated 4-5 weeks after treatment", "procedure,_shortened": "(§3)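 Test compound, dissolved in aqueous acetone, was sprayed over planted soil cups at an equivalent of about 0.0156 to 0.500 kg/ha; seeds had been mixed with potting soil. Greenhouse growth followed, with visual 0-9 scoring of injury at four to five weeks.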"}, "[4]": {"test_system": "GLXMAW (Soybean, Williams)", "test": "Preemergence herbicidal evaluation", "format": "in vivo, Glycine max, (L.) Merr. cv Williams", "conditions": "rated 4-5 weeks after treatment", "procedure,_shortened": "as §3"}, "[5]": {"test_system": "CYPIR (Rice Flatsedge)", "test": "Postemergence weed control under flooded paddy conditions", "format": "in vivo, Cyperus iria", "conditions": "postemergence weeds, rated 3 to 4 weeks after treatment", "procedure,_shortened": "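Injury ratings (0–9 scale covering stand, vigor, malformation, size, chlorosis and overall appearance versus control) were made three to four weeks after treatment. Test material, about 0.0313 to 0.500 kg/ha a.i. in 50/50 v/v aqueous/acetone, was added to flood water 1.5 to 3 cm deep over 3 to 5 cm weeds and 1.5 to 2.5 leaf rice.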"}, "[6]": {"test_system": "IPOHE (Morningglory, Ivyleaf)", "test": "Postemergence herbicidal evaluation", "format": "in vivo, Ipomoea hederacea", "conditions": "postemergence", "procedure,_shortened": "as §1"}, "[7]": {"test_system": "ABUTH (Velvetleaf)", "test": "Preemergence herbicidal evaluation", "format": "in vivo, Abutilon theophrasti", "conditions": "rated 4-5 weeks after treatment", "procedure,_shortened": "as §3"}, "[8]": {"test_system": "MOOVA (Monochoria)", "test": "Preemergence weed control under flooded paddy conditions", "format": "in vivo, Monochoria vaginalis", "conditions": "rated 3-4 weeks after treatment", "procedure,_shortened": "as §2"}, "[9]": {"test_system": "ZEAMX (Corn, Field)", "test": "Preemergence herbicidal evaluation", "format": "in vivo, Zea mays", "conditions": "rated 4-5 weeks after treatment", "procedure,_shortened": "as §3"}, "[10]": {"test_system": "CASOB (Sicklepod)", "test": "Preemergence herbicidal evaluation", "format": "in vivo, Cassia obtusifolia", "conditions": "rated 4-5 weeks after treatment", "procedure,_shortened": "as §3"}, "[11]": {"test_system": "TRZAWR (Wheat, Winter, cv Riband)", "test": "Preemergence herbicidal evaluation", "format": "in vivo, Triticum aestivum", "conditions": "rated 4-5 weeks after treatment", "procedure,_shortened": "as §3"}, "[12]": {"test_system": "CASOB (Sicklepod)", "test": "Postemergence herbicidal evaluation", "format": "in vivo, Cassia obtusifolia", "conditions": "postemergence", "procedure,_shortened": "as §1"}, "[13]": {"test_system": "AMBEL (Ragweed, Common)", "test": "Postemergence herbicidal evaluation", "format": "in vivo, Ambrosia artemisifolia", "conditions": "postemergence", "procedure,_shortened": "as §1"}, "[14]": {"test_system": "ECHCG (Barnyardgrass)", "test": "Preemergence herbicidal evaluation", "format": "in vivo, Echinochloa crus-galli", "conditions": "rated 4-5 weeks after treatment", "procedure,_shortened": "as §3"}},
  "data": [
    {"smiles": "Cn1c(C(F)(F)F)cc(=O)n(-c2cc(N=C3SCC(=O)N3CC(=O)OCC#N)c(Cl)cc2F)c1=O", "note": "[Compound 109, 2-{{2-Chloro-5-[3,6-dihydro-3-methyl-2,6-dioxo-4-(trifluoromethyl)-1(2H)-pyrimidinyl]-4-fluorophenyl}imino}-4-oxo-3-thiazolidineacetic acid, ester with glycolonitrile]", "values": [
      {"measurement": "herbicidal rating GALAP", "setting": "[1]; rate 0.0158 kg/ha", "value": 1.0},
      {"measurement": "herbicidal rating GALAP", "setting": "[1]; rate 0.0315 kg/ha", "value": 3.0},
      {"measurement": "herbicidal rating GALAP", "setting": "[1]; rate 0.0630 kg/ha", "value": 5.0},
      {"measurement": "SAGPY herbicidal effect rating", "setting": "[2]; 0.0313 kg/ha", "value": 4.5},
      {"measurement": "SAGPY herbicidal effect rating", "setting": "[2]; 0.0625 kg/ha", "value": 7.5},
      {"measurement": "SAGPY herbicidal effect rating", "setting": "[2]; 0.1250 kg/ha", "value": 9.0},
      {"measurement": "SAGPY herbicidal effect rating", "setting": "[2]; 0.2500 kg/ha", "value": 9.0},
      {"measurement": "Preemergence herbicidal rating IPOHE", "setting": "[3]; rate 0.0156 kg/ha", "value": 2.0},
      {"measurement": "Preemergence herbicidal rating IPOHE", "setting": "[3]; rate 0.0313 kg/ha", "value": 2.0},
      {"measurement": "Preemergence herbicidal rating IPOHE", "setting": "[3]; rate 0.0625 kg/ha", "value": 5.0},
      {"measurement": "Preemergence herbicidal rating IPOHE", "setting": "[3]; rate 0.1250 kg/ha", "value": 8.0},
      {"measurement": "Preemergence herbicidal rating IPOHE", "setting": "[3]; rate 0.2500 kg/ha", "value": 8.0},
      {"measurement": "Preemergence herbicidal rating IPOHE", "setting": "[3]; rate 0.5000 kg/ha", "value": 9.0},
      {"measurement": "Preemergence herbicidal rating GLXMAW", "setting": "[4]; rate 0.0156 kg/ha", "value": 1.5},
      {"measurement": "Preemergence herbicidal rating GLXMAW", "setting": "[4]; rate 0.0313 kg/ha", "value": 2.0},
      {"measurement": "Preemergence herbicidal rating GLXMAW", "setting": "[4]; rate 0.0625 kg/ha", "value": 5.0},
      {"measurement": "Preemergence herbicidal rating GLXMAW", "setting": "[4]; rate 0.1250 kg/ha", "value": 7.5},
      {"measurement": "Preemergence herbicidal rating GLXMAW", "setting": "[4]; rate 0.2500 kg/ha", "value": 9.0},
      {"measurement": "Preemergence herbicidal rating GLXMAW", "setting": "[4]; rate 0.5000 kg/ha", "value": 9.0},
      {"measurement": "Herbicidal rating CYPIR", "setting": "[5]; Rate 0.0313 kg/ha", "value": 0.0},
      {"measurement": "Herbicidal rating CYPIR", "setting": "[5]; Rate 0.0625 kg/ha", "value": 2.0},
      {"measurement": "Herbicidal rating CYPIR", "setting": "[5]; Rate 0.1250 kg/ha", "value": 4.0},
      {"measurement": "Herbicidal rating CYPIR", "setting": "[5]; Rate 0.2500 kg/ha", "value": 7.0},
      {"measurement": "herbicidal rating IPOHE", "setting": "[6]; rate 0.0158 kg/ha", "value": 9.0},
      {"measurement": "herbicidal rating IPOHE", "setting": "[6]; rate 0.0315 kg/ha", "value": 9.0},
      {"measurement": "herbicidal rating IPOHE", "setting": "[6]; rate 0.0630 kg/ha", "value": 9.0},
      {"measurement": "Preemergence herbicidal rating ABUTH", "setting": "[7]; rate 0.0156 kg/ha", "value": 6.5},
      {"measurement": "Preemergence herbicidal rating ABUTH", "setting": "[7]; rate 0.0313 kg/ha", "value": 9.0},
      {"measurement": "Preemergence herbicidal rating ABUTH", "setting": "[7]; rate 0.0625 kg/ha", "value": 9.0},
      {"measurement": "Preemergence herbicidal rating ABUTH", "setting": "[7]; rate 0.1250 kg/ha", "value": 9.0},
      {"measurement": "Preemergence herbicidal rating ABUTH", "setting": "[7]; rate 0.2500 kg/ha", "value": 9.0},
      {"measurement": "Preemergence herbicidal rating ABUTH", "setting": "[7]; rate 0.5000 kg/ha", "value": 9.0},
      {"measurement": "MOOVA herbicidal effect rating", "setting": "[8]; 0.0313 kg/ha", "value": 7.0},
      {"measurement": "MOOVA herbicidal effect rating", "setting": "[8]; 0.0625 kg/ha", "value": 9.0},
      {"measurement": "MOOVA herbicidal effect rating", "setting": "[8]; 0.1250 kg/ha", "value": 9.0},
      {"measurement": "MOOVA herbicidal effect rating", "setting": "[8]; 0.2500 kg/ha", "value": 9.0},
      {"measurement": "Preemergence herbicidal rating ZEAMX", "setting": "[9]; rate 0.0156 kg/ha", "value": 3.0},
      {"measurement": "Preemergence herbicidal rating ZEAMX", "setting": "[9]; rate 0.0313 kg/ha", "value": 3.5},
      {"measurement": "Preemergence herbicidal rating ZEAMX", "setting": "[9]; rate 0.0625 kg/ha", "value": 4.0},
      {"measurement": "Preemergence herbicidal rating ZEAMX", "setting": "[9]; rate 0.1250 kg/ha", "value": 6.0},
      {"measurement": "Preemergence herbicidal rating ZEAMX", "setting": "[9]; rate 0.2500 kg/ha", "value": 6.5},
      {"measurement": "Preemergence herbicidal rating ZEAMX", "setting": "[9]; rate 0.5000 kg/ha", "value": 7.0},
      {"measurement": "Preemergence herbicidal rating CASOB", "setting": "[10]; rate 0.0156 kg/ha", "value": 6.5},
      {"measurement": "Preemergence herbicidal rating CASOB", "setting": "[10]; rate 0.0313 kg/ha", "value": 4.0},
      {"measurement": "Preemergence herbicidal rating CASOB", "setting": "[10]; rate 0.0625 kg/ha", "value": 5.5},
      {"measurement": "Preemergence herbicidal rating CASOB", "setting": "[10]; rate 0.1250 kg/ha", "value": 6.5},
      {"measurement": "Preemergence herbicidal rating CASOB", "setting": "[10]; rate 0.2500 kg/ha", "value": 9.0},
      {"measurement": "Preemergence herbicidal rating CASOB", "setting": "[10]; rate 0.5000 kg/ha", "value": 9.0},
      {"measurement": "Preemergence herbicidal rating TRZAWR", "setting": "[11]; rate 0.0156 kg/ha", "value": 0.0},
      {"measurement": "Preemergence herbicidal rating TRZAWR", "setting": "[11]; rate 0.0313 kg/ha", "value": 1.0},
      {"measurement": "Preemergence herbicidal rating TRZAWR", "setting": "[11]; rate 0.0625 kg/ha", "value": 1.0},
      {"measurement": "Preemergence herbicidal rating TRZAWR", "setting": "[11]; rate 0.1250 kg/ha", "value": 6.0},
      {"measurement": "Preemergence herbicidal rating TRZAWR", "setting": "[11]; rate 0.2500 kg/ha", "value": 4.0},
      {"measurement": "herbicidal rating CASOB", "setting": "[12]; rate 0.0158 kg/ha", "value": 1.0},
      {"measurement": "herbicidal rating CASOB", "setting": "[12]; rate 0.0315 kg/ha", "value": 7.0},
      {"measurement": "herbicidal rating CASOB", "setting": "[12]; rate 0.0630 kg/ha", "value": 9.0},
      {"measurement": "herbicidal rating AMBEL", "setting": "[13]; rate 0.0158 kg/ha", "value": 9.0},
      {"measurement": "herbicidal rating AMBEL", "setting": "[13]; rate 0.0315 kg/ha", "value": 9.0},
      {"measurement": "herbicidal rating AMBEL", "setting": "[13]; rate 0.0630 kg/ha", "value": 9.0},
      {"measurement": "Preemergence herbicidal rating ECHCG", "setting": "[14]; rate 0.0156 kg/ha", "value": 1.5},
      {"measurement": "Preemergence herbicidal rating ECHCG", "setting": "[14]; rate 0.0313 kg/ha", "value": 2.5},
      {"measurement": "Preemergence herbicidal rating ECHCG", "setting": "[14]; rate 0.0625 kg/ha", "value": 4.0},
      {"measurement": "Preemergence herbicidal rating ECHCG", "setting": "[14]; rate 0.1250 kg/ha", "value": 7.0},
      {"measurement": "Preemergence herbicidal rating ECHCG", "setting": "[14]; rate 0.2500 kg/ha", "value": 8.5},
      {"measurement": "Preemergence herbicidal rating ECHCG", "setting": "[14]; rate 0.5000 kg/ha", "value": 9.0}
    ]}
  ]
}
